Residues, ends and D or L forms follow the SMILES beside them.
How the values were obtained:
Neuropilin-1/Fc = assay: Fluorescence polarization binding to NP-1/Fc; settings: unlabeled competitor; read-out: IC50 for competing BRU-326 binding to NP-1
Description: The ability of various compositions comprising TKPPR monomers or multimers to bind to NP-1/Fc and KDR-Fc was evaluated using FP. The binding studies of various Oregon Green (OG)-labeled compounds comprising TKPPR monomers or multimers and related compounds with Neuropilin-1/Fc, and KDR-Fc (both from R&D Systems), were carried out at 37° C. in D-PBS buffer (pH 7.4). FP values (mP) for each substrate was measured by titrating the ligand (5-20 nM) with receptor protein using a Jolley Research and Consulting FPM-1 fluorescence Polarization analyzer. In each of these experiments the observed polarization values were plotted against receptor concentration. The mP values for 100% binding of tracer labeled ligand to receptor protein was calculated using the software provided by the vendor.

[1] = system: Human aortic endothelial cells (HAEC); assay: TKPPR-conjugated fluorescent bead binding to HAEC, static; type: cell-based
Description: Human aortic endothelial cells (HAEC) from Biowhittaker were grown as monolayers in EGM-MV medium from Biowhittaker according to the supplier's instructions.
Briefly, a frozen cryovial of cells (500,000 cells in about 1 mL) was thawed for 2-3 minutes in a 37° C. water bath and cells were seeded into a T-75 flask coated with collagen I (commercially available) containing 15 mL EGM-MV of medium pre-equilibrated with 5% CO2 atmosphere. Cells were incubated in a standard tissue culture incubator at 37° C. HAEC were subcultured for up to 3 additional passages, using the following protocol:
For binding studies and characterization, pelleted cells were diluted to a concentration of 16,560 cells per mL, and 0.5 mL was seeded into each well of an 8-well chamber slide (Collagen I-coated, Becton Dickinson) to generate a seeding density of 12,000 cells/cm^2. Cells seeded into chamber slides were used for assays after 7 to 10 days, and were not further propagated.
TKPPR (see preparation described in the Example 1) was attached to red fluorescent carboxylate-modified FluoSpheres™ (Molecular Probes), which are 2.0 μm microspheres provided at 3.9×10^9 particles/mL of distilled water. 1.0 mg TKPPR was combined with 0.5 mLof 50 mM MES buffer (2-[N-Morpholino]ethanesulfonic acid, (commercially available), pH 6.0 and 0.2 mL FluoSpheres (7.8×10^8 spheres) in a 1.5 mL Eppendorf snap top, polypropylene centrifuge tube and rotated for 30 min at room temperature (RT). Then 2.8 mg EDAC (1-ethyl-3-(3-dimethylaminopropyl)carbodiimide hydrochloride, (commercially available) in 0.025 mL MES was added and the tube was rotated for 2 h at RT. Following the addition of 0.005 mL 1 N NaOH and 5.7 mg glycine in 0.025 mL MES, the tube was rotated for 30 min more at RT. The beads were then washed by employing three cycles of centrifugation at 14,000 rpm (20,800× g) in an Eppendorf 5417R centrifuge for 15 min, discarding the resulting supernatant, and resuspending in D-PBS. Storage was at 4° C. in 0.4 mL DPBS containing 0.05% NaN3 (final bead concentration was about 1.95×10^9/mL).
Final bead concentration was 1.95×10^7/mL. […]
Bead binding and localization was assessed at 200× magnification using the same microscopy equipment as described above. […] Finally, the processed images were inverted into black on a white background using Scion Image software (version beta 3b) and the integrated density was measured with the whole field selected.
The incubation time was decreased to 15 min on an orbital shaker, and the washes (3) were carried out using D-PBS containing 0.1% Tween 20 (Sigma). […] TKPPR-bead binding was quantitated in three fields, the other bead types were quantitated in one field only. Bound beads were quantitated by manual counting.

[2] = system: Human aortic endothelial cells (HAEC); assay: Free TKPPR peptide inhibition of TKPPR-conjugated bead binding to HAEC; type: cell-based
Description: HAEC were seeded into each well of an 8-well chamber slide (Collagen I Cellware, Becton Dickinson) and allowed to achieve confluence at 37° C. Solutions containing both TKPPR-beads (final concentration 4.9×10^6/mL) and green control beads (final concentration 4.9×10^6/mL) were prepared in D-PBS containing protease inhibitor cocktail (final dilution 1:50) and 0, 10, 25, 50, 100, 200, or 500 μM free TKPPR peptide. 0.25 mL of each microsphere solution was added to a well in the drained chamber slide and incubated at RT for 15 min. Two wells received the bead solution (mixed unconjugated and TKPPR beads as indicated above) lacking free competing TKPPR peptide. The slide was then washed three times with 0.5 mL D-PBS containing 0.1% Tween 20, fixed with methanol for 1 min and mounted. The three images for each level of TKPPR competition and the six images of the control were averaged and the % inhibition of binding was calculated using the following equation:
% Inhibition=100×(Control Density−Competition Density)/Control Density
A total of eleven 8-well slides were evaluated for competitive TKPPR-bead binding to HAEC on 7 different days.

## CC(O)C(N)C(=O)NC(CCCCN)C(=O)N1CCCC1C(=O)N1CCCC1C(=O)NC(CCCNC(=N)N)C(=O)O [TKPPR, L-Arginine, L-threonyl-L-lysyl-L-prolyl-L-prolyl] (H-TKPPR-OH; configuration not given here)
Neuropilin-1/Fc
  IC50: 80 µM
[1]; Experiment 1, 1.95×10^7 beads/mL, 30 min, HAEC monolayer
  Integrated density of bound beads: 229.97 arbitrary units
[1]; Experiment 2, 4.9×10^6 beads/mL, 15 min, manual counting, TKPPR average of three fields, others one field
  Number of bound beads: 74, 103, 72 (ave. 83)
[2]; free TKPPR 10 μM
  Average (n = 11) % Inhibition of TKPPR-bead binding: 30.8%
[2]; free TKPPR 25 μM
  Average (n = 11) % Inhibition of TKPPR-bead binding: 50.7%
[2]; free TKPPR 50 μM
  Average (n = 11) % Inhibition of TKPPR-bead binding: 50.5%
[2]; free TKPPR 100 μM
  Average (n = 11) % Inhibition of TKPPR-bead binding: 62.0%
[2]; free TKPPR 200 μM
  Average (n = 11) % Inhibition of TKPPR-bead binding: 72.2%
[2]; free TKPPR 500 μM
  Average (n = 11) % Inhibition of TKPPR-bead binding: 70.6%

From patent US20020147136A1, “Compounds for targeting endothelial cells, compositions containing the same and methods for their use” (priority 2000, published 2002)
